This note sets out measurements from ChEMBL document CHEMBL5576082, “Minor Cannabinoids as Inhibitors of Skin Inflammation: Chemical Synthesis and Biological Evaluation” (J Nat Prod, 2024).

The source made the active and inactive calls. The calls are words filed in the database; no cut-off is given here.

Series [1] deals with HaCaT. Description: Inhibition of TNF-alpha-induced NFkappaB (unknown origin) transcription in human HaCaT cells transiently transfected with NFkappaB-LUC at 5 uM after 6 hrs by luminescence based spectrophotometric assay. It is filed as cell-based.
Series [2] relates to HaCaT. Nature of the series: Cytotoxicity against human HaCaT cells assessed as reduction in cell viability at 5 uM after 24 hrs by MTT assay. Type of series: toxicity, cell-based.
In series [3] the test system is HaCaT. Nature of the series: Antiinflammatory activity against human HaCaT cells assessed as inhibition of TNF-alpha-induced IL-8 protein expression at 5 uM after 6 hrs by ELISA relative to control. Type of series: functional.
Series [4] can be described thus: Inhibition of TNF-alpha-induced NFkappaB (unknown origin) transcription in human HaCaT cells transiently transfected with NFkappaB-LUC after 6 hrs by luminescence based spectrophotometric assay. It is filed as cell-based.
Series [5] concerns HaCaT. Nature of the series: Antiinflammatory activity against human HaCaT cells assessed as inhibition of TNF-alpha-induced IL-8 protein expression after 6 hrs by ELISA. It is filed as functional, cell-based.

Regarding `CCCc1cc2c3c(c1)O[C@@]1(C)CCC([C@@H]3C1)C(C)(C)O2` (some centres not stated), the inhibition entry with HaCaT [1] and in the series with HaCaT [3] was “inactive” throughout. The Activity entry in the series on HaCaT [2] was “Non-Toxic”.
For the molecule `CCCCc1cc2c(c(O)c1C(=O)OC)CC[C@@](C)(CCC=C(C)C)O2`, the inhibition result in the series on HaCaT [1] is “Active”. For the same molecule, the Activity result with HaCaT [2] was “Non-Toxic”. In addition, the 50% inhibitory concentration (IC50) in series [4] was 4.23 µM; in the series with HaCaT [5] it was 1.58 µM. Further, the inhibition at 5 µM in the series on HaCaT [3] was found to be 100%.
Turning to `CCCc1cc(O)c2c(c1)O[C@](C)(CCC=C(C)C)CC2`, the inhibition entry in the series with HaCaT [1] was “Active”. Moreover, the Activity entry in the series with HaCaT [2] is “Non-Toxic”. Also, the inhibition entry with HaCaT [3] is “inactive”.
With `CCCc1cc(O)c(C/C=C(/C)CCC=C(C)C)c(O)c1`, the inhibition result in the series on HaCaT [1] was “Active”. Moreover, in the series on HaCaT [2], the Activity entry is listed as “Non-Toxic”. In addition, in the series on HaCaT [3], the inhibition result was “inactive”.
Regarding `CCCCc1cc(O)c(C/C=C(\C)CCC=C(C)C)c(O)c1`, the inhibition with HaCaT [1] is 100%. The Activity result in the series with HaCaT [2] is “Non-Toxic”. For the same molecule, the IC50 in series [4] worked out at 2.36 µM; in the series on HaCaT [5], 0.82 µM. Besides, the inhibition at 5 µM in the series with HaCaT [3] is 100%.
With `CCCc1cc(O)c(C/C=C(\C)CCC=C(C)C)c(O)c1`, in the series on HaCaT [1], the inhibition entry is “Active”. The Activity result in the series on HaCaT [2] was “Non-Toxic”. Further, the inhibition result with HaCaT [3] was “inactive”.
For `CCCCc1cc2c(c(O)c1C(=O)O)CC[C@@](C)(CCC=C(C)C)O2`, in that order: “Active”, “Non-Toxic” and “inactive”.
Turning to `CCCCc1cc2c3c(c1)O[C@@]1(C)CCC([C@@H]3C1)C(C)(C)O2` (some centres not stated), the inhibition entry with HaCaT [1] and in the series on HaCaT [3] was “inactive” throughout. The Activity entry with HaCaT [2] is “Non-Toxic”.
Regarding `C=C(C)[C@@H]1CCC(C)=C[C@H]1c1c(O)cc(CCCCC)cc1O`, in the series on HaCaT [3], the inhibition result was “inactive”.
Turning to `CCCCCc1cc(O)c(C/C=C(\C)CCC=C(C)C)c(O)c1` [CANNABIGEROL], the figures for the IC50 (in series [4]; with HaCaT [5]) were 2.51 µM and greater than 5 µM, respectively. In addition, the inhibition at 5 µM with HaCaT [3] is roughly 40%.
Consider `CCCCc1cc(O)c(C/C=C(\C)CCC=C(C)C)c(O)c1C(=O)OC`, for which the inhibition in the series with HaCaT [1] is 100%. In the series with HaCaT [2], the Activity entry is given as “Non-Toxic”. Also, the IC50 turned out to be 0.6 µM in series [4] and 0.53 µM with HaCaT [5]. Further, the inhibition at 5 µM with HaCaT [3] turned out to be 100%.
For `CCCCc1cc(O)c(C/C=C(/C)CCC=C(C)C)c(O)c1`, the inhibition in the series on HaCaT [1] was determined as 100%. For the same molecule, the Activity result in the series with HaCaT [2] is reported as “Non-Toxic”. Moreover, the IC50 in series [4] was found to be 2.8 µM; with HaCaT [5], 0.87 µM. Further, in the series with HaCaT [3], the inhibition at 5 µM amounted to 100%.
On to `CCCCc1cc(O)c2c(c1)O[C@](C)(CCC=C(C)C)CC2`, for which, in the series with HaCaT [1], the inhibition came out at 100%. The Activity result with HaCaT [2] is listed as “Non-Toxic”. The IC50 is 3.11 µM in series [4] and 1.06 µM in the series with HaCaT [5]. The inhibition at 5 µM in the series on HaCaT [3] was found to be 100%.
